Laboratory results as given in patent publication US20240174696A1, “2,8-DIAZASPIRO[4.5]DECANE COMPOUNDS” (Genentech, Inc., priority 2021, published 2024).

What was measured:
[1] = target: T1, Human LATS2 catalytic domain (Homo sapiens (Human), UniProt Q9NRM7); assay: LATS2 High ATP HTRF Assay; type: biochemical; conditions: no asterisk: LATS2 High ATP HTRF Assay, 5000 μM ATP, 0.05 nM LATS2
Method in brief: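 LATS2 catalytic domain (G553-V1088) co-purified with Mob1b, 0.05 nM, pre-incubated 10 min with compound, then 5000 μM ATP and 0.5 μM STK S1 peptide in HEPES pH7.2 for 2 h at room temperature. HTRF 665/620 nm read; IC50 by four-parameter fit, Ki via Cheng-Prusoff with ATP Km 105 μM.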

[2] = target: Human LATS1 catalytic domain (Homo sapiens (Human), UniProt O95835); assay: LATS1 High ATP HTRF Assay; type: biochemical; conditions: 5000 μM ATP, 0.025 nM LATS1; Cheng-Prusoff
Sequence of Human LATS1 catalytic domain (O95835 590-1130): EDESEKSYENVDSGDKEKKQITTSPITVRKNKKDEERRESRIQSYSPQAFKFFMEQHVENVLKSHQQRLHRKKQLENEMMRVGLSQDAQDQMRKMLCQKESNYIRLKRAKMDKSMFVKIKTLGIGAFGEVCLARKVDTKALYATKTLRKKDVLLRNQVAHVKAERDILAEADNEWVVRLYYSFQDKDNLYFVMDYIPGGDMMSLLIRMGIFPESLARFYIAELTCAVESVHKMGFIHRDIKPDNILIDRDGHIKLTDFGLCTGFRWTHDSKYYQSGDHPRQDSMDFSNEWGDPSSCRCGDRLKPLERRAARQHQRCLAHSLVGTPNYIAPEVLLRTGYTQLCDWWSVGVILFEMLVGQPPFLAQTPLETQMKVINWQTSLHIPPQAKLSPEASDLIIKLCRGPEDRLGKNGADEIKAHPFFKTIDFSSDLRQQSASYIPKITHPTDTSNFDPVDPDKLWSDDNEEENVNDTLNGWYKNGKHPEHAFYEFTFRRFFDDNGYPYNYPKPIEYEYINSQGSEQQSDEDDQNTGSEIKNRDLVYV
Sequence of Human LATS1 catalytic domain (Q7L9L4 whole entry partner, the tested form may be a part): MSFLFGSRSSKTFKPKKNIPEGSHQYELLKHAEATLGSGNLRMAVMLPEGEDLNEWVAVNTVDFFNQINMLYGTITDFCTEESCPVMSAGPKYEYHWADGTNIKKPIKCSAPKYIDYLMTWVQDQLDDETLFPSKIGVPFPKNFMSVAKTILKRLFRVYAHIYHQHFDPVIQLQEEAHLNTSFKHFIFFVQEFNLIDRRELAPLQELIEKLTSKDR
Method: Human LATS1 catalytic domain which contains the amino acids E590-V1130 (accession NP_004681) was purified in-house. The LATS1 catalytic domain was co-purified with Mob1b (accession NP_775739). The LATS1 biochemical assay was performed using the HTRF KinEASE-STK S1 Kit (Cisbio, Cat #62ST1PEC), following the protocol from the manufacturer. Compounds were dispensed by the Echo Liquid Handler (Labcyte) into a white 384-well plate (PerkinElmer, Cat #6008289). 3 μL of 2×LATS1 enzyme solution was added to the compounds, followed by a 10 minute incubation at room temperature. Then, 3 μL of 2×ATP and STK S1 peptide solution was added to initiate the enzyme reaction for one hour at room temperature. The final condition of the reaction was 0.025 nM LATS1, 5000 μM ATP, 0.5 μM STK S1 peptide in 50 mM HEPES pH 7.2, 10 mM MgCl2, 0.1% BGG, 0.005% Brij-35, 1 mM DTT. The reaction was quenched and the HTRF signal was read.

[3] = test system: pYAP(Ser127) in SW1990 cells; assay: pYAP(Ser127) HTRF Cellular Assay; type: cell-based; conditions: Homo sapiens, 4 hours
Method: The SW1990 cells were seeded at 8000 cells/well by adding 30 μL/well of cells in RPMI1640, 10% FBS, 2 mM glutamine culture media to a 384-well plate (Corning 3570). The cells were incubated overnight at 37° C. Next day, compounds were directly added to the cells using the Echo Liquid Handler (Labcyte), incubate at 37° C. for 4 hours.
The HTRF assay was performed using the Cisbio phospho-YAP Ser127 HTRF kit (64YAPPEG). The media was aspirated from the cells. 20 μL of 1X lysis/blocking buffer was added to the cells, gently shake for 30 minutes at room temperature. 1 μL of the premixed antibody solution (1:40 dilution of each phospho-YAP Eu Cryptate antibody and phospho-YAP d2 antibody) was added to the cells. The plate was sealed and incubated overnight at room temperature. The HTRF (665 nm/620 nm) signal was read on the PHERAstar reader (BMG Labtech). The EC50 values were calculated by fitting the % inhibition with a nonlinear four-parameter logistical equation.

[4] = test system: TAZ nuclear translocation in SW1990 cells; assay: TAZ Nuclear Translocation Assay; type: cell-based; conditions: Homo sapiens, 4 hours
Method in brief: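 SW1990 cells in RPMI1640/10% FBS treated with compounds for 4 h at 37 °C, then fixed and immunostained for TAZ with Hoechst nuclear counterstain and imaged by high-content imaging. Read-out is the nuclear/cytoplasmic-ring fluorescence ratio, normalized to DMSO (0%) and an inhibitor control (100%); EC50 from four-parameter fit.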

[5] = target: T1, Human LATS2 catalytic domain; assay: Standard LATS2 HTRF Assay; type: biochemical; conditions: asterisk: Standard LATS2 HTRF Assay, 50 μM ATP, 0.2 nM LATS2
Method: Human LATS2 catalytic domain which contains the amino acids G553-V1088 (accession NP_055387) was purified in-house. The LATS2 catalytic domain was co-purified with Mob1b (accession NP_775739). The LATS2 biochemical HTRF assay was performed using the HTRF KinEASE-STK S1 Kit (Cisbio, Cat #62ST1PEC), following the protocol from the manufacturer. Compounds were dispensed by the Echo Liquid Handler (Labcyte) into a white 384-well plate (PerkinElmer, Cat #6008289). 3 uL of 2×LATS2 enzyme solution was added to the compounds, following by a 10 minute incubation at room temperature. Then, 2×ATP and STK S1 peptide solution was added to initiate the one hour enzyme reaction at room temperature. The final condition of the reaction was 0.2 nM LATS2, 50 μM ATP, 0.5 μM STK S1 peptide in 50 mM HEPES pH7.2, 10 mM MgCl2, 0.1% BGG, 0.005% Brij-35, 1 mM DTT. The reaction was quenched by adding 6 uL of the detection mixture which contained Streptavidin XL665 and STK Antibody-Cryptate (Cisbio), incubate for 1 hour at room temperature. The HTRF (665 nm/620 nm) signal was read on the Envision plater reader (PerkinElmer). The IC50 values were determined by fitting the % inhibition with a nonlinear four-parameter logistical equation. The Ki values were calculated using the Cheng-Prusoff equation for a competitive inhibitor, IC50═Ki (1+S/Km)+M [E] with ATP Km for LATS2=105 μM.

T1 sequence (Q9NRM7 553-1088): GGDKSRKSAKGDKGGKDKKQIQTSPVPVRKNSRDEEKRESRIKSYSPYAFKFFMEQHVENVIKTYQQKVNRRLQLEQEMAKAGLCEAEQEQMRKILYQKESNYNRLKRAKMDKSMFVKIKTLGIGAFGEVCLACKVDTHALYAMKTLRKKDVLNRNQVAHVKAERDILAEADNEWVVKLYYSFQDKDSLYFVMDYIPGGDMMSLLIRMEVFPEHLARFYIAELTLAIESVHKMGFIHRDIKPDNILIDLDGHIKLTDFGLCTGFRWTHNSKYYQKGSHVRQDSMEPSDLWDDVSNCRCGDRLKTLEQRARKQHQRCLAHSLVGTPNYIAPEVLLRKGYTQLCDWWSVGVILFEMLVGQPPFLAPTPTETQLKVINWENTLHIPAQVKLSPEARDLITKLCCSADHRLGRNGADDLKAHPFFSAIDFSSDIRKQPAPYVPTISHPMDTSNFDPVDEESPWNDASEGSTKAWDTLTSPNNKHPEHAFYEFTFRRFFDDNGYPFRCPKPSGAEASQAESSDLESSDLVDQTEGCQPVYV
T1 sequence (Q7L9L4 whole entry partner, the tested form may be a part): as the sequence (Q7L9L4 whole entry partner, the tested form may be a part) above

## C[C@H](O)CN1CCC2(CCN(c3nc(-c4ccncc4)nc4cnccc34)CC2)C1 (single isomer, unassigned) [Compound 115]
[1]
  Ki: 0.13 nM
[2]
  Ki: 0.0063 nM
[3]
  EC50: 310 nM
[4]
  EC50: 300 nM

## C[C@@H](O)CN1CCC2(CCN(c3nc(-c4ccncc4)nc4cnccc34)CC2)C1 (single isomer, unassigned) [Compound 116]
[1]
  Ki: 0.13 nM
[2]
  Ki: 0.0079 nM
[3]
  EC50: 320 nM
[4]
  EC50: 310 nM

## O[C@@H]1CCC[C@H]1N1CCC2(CCN(c3nc(-c4ccncc4)nc4cnccc34)CC2)C1 (single isomer, unassigned) [Compound 128]
[1]
  Ki: 0.073 nM
[2]
  Ki: 0.0058 nM
[3]
  EC50: 360 nM
[4]
  EC50: 300 nM

## O[C@H]1CCC[C@@H]1N1CCC2(CCN(c3nc(-c4ccncc4)nc4cnccc34)CC2)C1 (single isomer, unassigned) [Compound 129]
[1]
  Ki: 0.076 nM
[2]
  Ki: 0.0074 nM
[3]
  EC50: 290 nM
[4]
  EC50: 140 nM

## c1cc(-c2nc(N3CCC4(CCNC4)CC3)c3ccncc3n2)ccn1 [Compound 101, 2-(pyridin-4-yl)-4-(2,8-diazaspiro[4.5]decan-8-yl)pyrido[3,4-d]pyrimidine]
[1]
  Ki: 0.38 nM
[2]
  Ki: 0.051 nM
[3]
  EC50: 1100 nM
[4]
  EC50: 990 nM

## CN1CCC2(CCN(c3nc(-c4ccncc4)nc4cnccc34)CC2)C1 [Compound 102, 4-(2-methyl-2,8-diazaspiro[4.5]decan-8-yl)-2-(pyridin-4-yl)pyrido[3,4-d]pyrimidine]
[1]
  Ki: 0.98 nM
[2]
  Ki: 0.011 nM
[3]
  EC50: 430 nM
[4]
  EC50: 350 nM

## CC(C)(O)CN1CCC2(CCN(c3nc(-c4ccncc4)nc4cnccc34)CC2)C1 [Compound 110, 2-methyl-1-(8-(2-(pyridin-4-yl)pyrido[3,4-d]pyrimidin-4-yl)-2,8-diazaspiro[4.5]decan-2-yl)propan-2-ol]
[1]
  Ki: 0.075 nM
[2]
  Ki: 0.0079 nM
[3]
  EC50: 330 nM
[4]
  EC50: 220 nM

## N#CC1CC(N2CCC3(CCN(c4nc(-c5ccncc5)nc5cnccc45)CC3)C2)C1 (centres unmarked) [Compound 118, 3-(8-(2-(pyridin-4-yl)pyrido[3,4-d]pyrimidin-4-yl)-2,8-diazaspiro[4.5]decan-2-yl)cyclobutanecarbonitrile]
[5]
  Ki: 1.02 nM
[4]
  EC50: > 10000 nM

## c1cc(-c2nc(N3CCC4(CC3)CCN(C3CCOCC3)C4)c3ccncc3n2)ccn1 [Compound 122, 2-(pyridin-4-yl)-4-(2-(tetrahydro-2H-pyran-4-yl)-2,8-diazaspiro[4.5]decan-8-yl)pyrido[3,4-d]pyrimidine]
[5]
  Ki: 1.02 nM
[4]
  EC50: 990 nM

## c1cc(-c2nc(N3CCC4(CCN(CC5COC5)C4)CC3)c3ccncc3n2)ccn1 [Compound 124, 4-(2-(oxetan-3-ylmethyl)-2,8-diazaspiro[4.5]decan-8-yl)-2-(pyridin-4-yl)pyrido[3,4-d]pyrimidine]
[1]
  Ki: 0.083 nM
[2]
  Ki: 0.0068 nM
[3]
  EC50: 260 nM
[4]
  EC50: 240 nM

## c1cc(-c2nc(N3CCC4(CC3)CCN(C3COC3)C4)c3ccncc3n2)ccn1 [Compound 137, 4-(2-(oxetan-3-yl)-2,8-diazaspiro[4.5]decan-8-yl)-2-(pyridin-4-yl)pyrido[3,4-d]pyrimidine]
[5]
  Ki: 2.17 nM
[4]
  EC50: 1700 nM

## Cc1n[nH]cc1-c1nc(N2CCC3(CC2)CCN(C2CCCC2)C3)c2ccncc2n1 [Compound 147, 4-(2-cyclopentyl-2,8-diazaspiro[4.5]decan-8-yl)-2-(3-methyl-1H-pyrazol-4-yl)pyrido[3,4-d]pyrimidine]
[1]
  Ki: 0.056 nM
[2]
  Ki: 0.013 nM
[3]
  EC50: 210 nM
[4]
  EC50: 180 nM

## FC(F)(F)c1[nH]ncc1-c1nc(N2CCC3(CCNC3)CC2)c2ccncc2n1 [Compound 154, 4-(2,8-diazaspiro[4.5]decan-8-yl)-2-(5-(trifluoromethyl)-1H-pyrazol-4-yl)pyrido[3,4-d]pyrimidine]
[5]
  Ki: 0.16 nM
[4]
  EC50: 7200 nM

## c1ccc(Cc2cc3c(N4CCC5(CCNC5)CC4)nc(-c4ccncc4)nc3cn2)cc1 [Compound 157, 6-benzyl-2-(pyridin-4-yl)-4-(2,8-diazaspiro[4.5]decan-8-yl)pyrido[3,4-d]pyrimidine]
[1]
  Ki: 0.067 nM
[2]
  Ki: 0.049 nM
[3]
  EC50: 510 nM
[4]
  EC50: 240 nM

## Cc1cc2c(N3CCC4(CCNC4)CC3)nc(-c3ccncc3)nc2cn1 [Compound 158, 6-methyl-2-(pyridin-4-yl)-4-(2,8-diazaspiro[4.5]decan-8-yl)pyrido[3,4-d]pyrimidine]
[5]
  Ki: 1.29 nM
[4]
  EC50: 3100 nM

## O=C1CC2(CCN(c3nc(-c4ccncc4)nc4cnccc34)CC2)CN1 [Compound 164, 8-(2-(pyridin-4-yl)pyrido[3,4-d]pyrimidin-4-yl)-2,8-diazaspiro[4.5]decan-3-one]
[1]
  Ki: 53.5 nM
[5]
  Ki: 9.42 nM
[4]
  EC50: > 10000 nM

## O=C1NCCC12CCN(c1nc(-c3ccncc3)nc3cnccc13)CC2 [Compound 165, 8-(2-(pyridin-4-yl)pyrido[3,4-d]pyrimidin-4-yl)-2,8-diazaspiro[4.5]decan-1-one]
[1]
  Ki: 5.35 nM
[5]
  Ki: 3.93 nM
[4]
  EC50: 6500 nM
